Counter-ions that a name gives are not always drawn.
Experiments:
[1] = system: collagen 1 mRNA in HK-2 cells (epithelial cells); experiment: Inhibition of collagen mRNA in TGF-β-treated HK-2 epithelial cells; type: cell-based; conditions: for inhibition at 500 µM: HK-2, compound 0.5 mM; for Collagen HK-2 cells % inhibition: compound 0.25 mM
Description: (§1) CTGF, collagen 1 and α-SMA are fibrotic markers produced by activated fibroblasts and by epithelial cells that undergo to epithelial-mesenchymal transition (EMT).
(§2) Table 2: Percentage of inhibition of collagen in epithelial cells (HK2 cells) and fibroblasts (NHDF) and percentage of inhibition of α-SMA in fibroblasts (NRK-49F and NHDF) has been determined for several compounds according the invention. In all cases, the mRNA of collagen and α-SMA has been measured, and the inhibition was evaluated in presence of a respective concentration of the tested compound. The compounds have been tested at different concentrations [mM]. All compounds reduce the expression of collagen and α-SMA in HK-2, NHDF and NRK-49F cells.

[2] = system: collagen 1 mRNA in NHDF cells; experiment: Inhibition of collagen mRNA in TGF-β-activated NHDF fibroblasts; type: cell-based; conditions: Homo sapiens, compound 0.5 mM
Description: as §1, §2

[3] = system: α-SMA mRNA in NRK-49F cells; experiment: Inhibition of α-SMA mRNA in TGF-β-activated NRK-49F fibroblasts; type: cell-based, rat
Description: as §1, §2

[4] = system: CCl4-induced liver fibrosis mouse model; experiment: CCl4-induced liver fibrosis mouse model; type: in vivo, mouse (male C57BL/6); conditions: CCl4 twice a week for 8 weeks; oral 100 and 200 mg/kg every day, day 1 to day 58; FIG. 22
Description: Hepatic fibrosis is an outcome of many chronic liver diseases, including hepatitis B virus, hepatitis C virus, alcoholic liver disease, non-alcoholic steatohepatitis and diverse chronic intoxication. It was thus desired to evaluate the effect of Compound I on murine CCl4-induced liver fibrosis. Intoxication with CCl4 results in hepatocyte damage, necrosis, inflammation, and fibrosis, which spreads to link the vascular structures that feed into and drain the hepatic sinusoid (the portal tract and central vein radical, respectively), and over 8-30 weeks results in the development of fibrosis to hepatocellular carcinoma. Therefore, evaluation of candidate antifibrotic drugs such as Compound I can be undertaken by treatment of the mice at appropriate time points and histologic, biochemical and cellular readouts may be used to monitor candidate drug efficacy in this model.
CCl4 (10% in corn oil, 2 ml/kg) was intraperitoneally injected twice a week for 16 weeks in male C57BL/6. Compound I (200 mg/kg) was orally administered every day from day 1 to day 113. Mice were euthanasized and histology and liver fibrotic markers were analyzed.
To determine if Compound I has an effect on liver fibrosis, hydroxyproline level was used to measure the collagen content in the tissue, which is indicative of liver fibrosis.
The reduction of collagen level in liver tissue was also observed in histological micrographs using the Masson's Trichrome staining.
The Masson's trichrome stain the cytoplasm, keratin, muscle fibers and intracellular fibers in red colour; nuclei in black colour and collagen (fibrous tissue) in blue color.
Another experiment has been performed with Compound 1 and Compound V where CCL4 (10% in olive oil, 2 ml/kg) was intraperitoneally injected twice a week for 8 weeks in male C57BL/6. Compound 1 and compound V were orally administered (100 and 200 mg/kg) every day from day 1 to day 58. Mice were euthanasized and collagen content (marker of fibrosis) in the liver was quantified by histomorphometry using Masson's trichrome staining.

[5] = system: α-SMA mRNA in NHDF cells; experiment: Inhibition of α-SMA mRNA in TGF-β-activated NHDF fibroblasts; type: cell-based; conditions: Homo sapiens, compound 0.5 mM
Description: as §1, §2

[6] = system: bleomycin-induced pulmonary fibrosis mouse model; experiment: Bleomycin-induced pulmonary fibrosis mouse model: body weight and lung histology; type: in vivo, mouse (male C57BL6); conditions: oral, Compound I 200 mg/kg, pirfenidone 400 mg/kg
Description: Intratracheal instillation of the anticancer drug bleomycin into the mouse results in acute inflammation followed by a chronic fibrotic response. Therefore, evaluation of candidate antifibrotic drugs such as Compound I can be undertaken by treatment of the mice at appropriate time points and histologic, biochemical and cellular readouts may be used to monitor candidate drug efficacy in this model.
(§3) Male C57BL6 mice are administered intratracheal instillation of bleomycin sulphate (0.025 U) at day 0, randomized and administered Compound I (oral administration, 100 mg/kg and 200 mg/kg) on day 7 to day 20.
Lesions score was evaluated using HEP (Hemalun with Eosin/Ploxine) and Masson's trichrome staining. Lesions score was recorded as 1) Consolidation as shown by disrupted lung architecture (cellular and/or fibrosis) and 2) Alveolar wall as shown by thickness and shrinking outside of consolidated area.
(§4) It was therefore evaluated side-by-side with Compound I in the bleomycin-induced pulmonary fibrosis mouse model by the same protocol described in Example 4 above. Compound I (200 mg/kg) and pirfenidone (400 mg/kg) were orally administered either alone or in combination.
Lesions score was evaluated using HEP (Hemalun with Eosin/Ploxine) and Masson's trichrome staining and recorded as 1) Consolidation as shown by disrupted lung architecture (cellular and/or fibrosis), and 2) Alveolar wall as shown by thickness and shrinking outside of consolidated area.
The lesions score as determined by the percentage of leukocyte infiltration (inflammatory zone) multiplied by the percentage of collagen found in the leukocyte infiltrate was quantified by histomorphometry using Masson's trichrome staining.
Visual grading of pulmonary fibrosis was also determined according to Ashcroft's score. Briefly, the entire fields of each lung section were read by a blinded examiner, and each field was visually graded from 0 to 8. Criteria for grading lung fibrosis were as follows: Grade 0=normal lung; Grade 1=minimal fibrous thickening of alveolar or bronchiolar walls; Grade 3=moderate thickening of walls without obvious damage to lung architecture; Grade 5=increased fibrosis with definitive damage to lung structure and formation of fibrous bands or small fibrous masses; Grade 7=severe distortion of structure and large fibrous area; Grade 8=total fibrous obliteration of lung fields.

[7] = system: TGF-β, CTGF, IL-23p19, IL-6, collagen 1, fibronectin (FN-1), collagen 3 mRNA in lung tissue; experiment: Real-time PCR of inflammatory and fibrotic marker mRNA in lung tissue, bleomycin-induced pulmonary fibrosis mouse model; type: in vivo, mouse (male C57BL6); conditions: oral, Compound I 200 mg/kg, pirfenidone 400 mg/kg, alone or combined
Description: as §3
Further analysis of the lung tissue was undertaken. CTGF, collagen 1 and IL-23p19 mRNA expression was quantified by real-time PCR.
as §4
In order to determine the effect of Compound I on pulmonary fibrosis, further analysis of the lung tissue was undertaken. TGF-β, CTGF, IL-23 and IL-6 mRNA expression was quantified by real-time PCR. […] Oral administration of pirfenidone had no effect on CTGF mRNA expression but decreased TGF-β, IL-23 and IL-6 mRNA expression. […]

[8] = Toxicity related to drug in the bleomycin-induced pulmonary fibrosis mouse model; type: in vivo; conditions: oral, Compound I 200 mg/kg, pirfenidone 400 mg/kg, alone or in combination, solubilized in PBS
Description: as §4
Compound I and pirfenidone were solubilized in PBS. In the combination therapy, pirfenidone was solubilized in a solution of Compound I. No toxicity was reported with Compound I treatment.

[9] = Rattus norvegicus, NRK-49F, compound 0.5 mM
[10] = Rattus norvegicus, NRK-49F, compound 0.25 mM

## CCCCCc1cc(O)cc(CC(=O)O)c1 [Compound II, Sodium Salt of 3-hydroxy-5-pentylphenylacetic acid]
[1]; Homo sapiens
  inhibition at 500 µM: 43%
[2]
  inhibition at 500 µM: 40%
[3]; [9]
  inhibition at 500 µM: 66%

## CCCCCc1cc(F)cc(CC(=O)O)c1 [Compound III, Sodium Salt of 3-fluoro-5-pentylphenylacetic acid]
[1]; Homo sapiens
  inhibition at 500 µM: 100%
[3]; [10]
  inhibition at 250 µM: 100%

## CCC/C=C/c1cccc(CC(=O)O)c1 [Compound IV, Sodium Salt of E-(3-pent-1-enyl-phenyl)acetic acid]
[3]; [9]
  inhibition at 500 µM: 64%

## CCCCCc1cccc(C(F)C(=O)[O-])c1.[Na+] (stereo not drawn) [Compound IX, Sodium Salt of 2-Fluoro-2-(3-pentylphenyl)acetic acid]
[3]; compound 0.5 mM
  α-SMA NRK-49F cells % inhibition: 82%

## CCCCCc1ccc(O)c(CC(=O)O)c1 [Compound V, Sodium Salt of (2-hydroxy-5-pentylphenyl)acetic acid]
[4]
  collagen content in liver (histomorphometry, Masson's trichrome): significant reduction
[1]; Homo sapiens
  inhibition at 500 µM: 100%
[2]
  inhibition at 500 µM: 100%
[3]; [9]
  inhibition at 500 µM: 100%
[5]
  inhibition at 500 µM: 100%

## CCCCCc1cc(CCC(=O)O)ccc1F [Compound VI, Sodium Salt of 3-(4-fluoro-3-pentylphenyl)propionic acid]
[3]; Rattus norvegicus, NRK-49F, compound 0.125 mM
  inhibition at 125 µM: 90%

## CCCCCc1cccc(CCC(=O)[O-])c1.[Na+] [Compound VII, Sodium Salt of 3-(3-pentylphenyl)propionic acid]
[3]; compound 0.25 mM
  α-SMA NRK-49F cells % inhibition: 100%

## CCCCCc1cccc(C(C)C(=O)[O-])c1.[Na+] (stereo not drawn) [Compound VIII, Sodium Salt of 2-(3-pentylphenyl)propionic acid]
[3]; compound 0.25 mM
  α-SMA NRK-49F cells % inhibition: 86%

## CCCCCc1cccc(C(C)(C)C(=O)[O-])c1.[Na+] [Compound X, Sodium Salt of 2-methyl-2-(3-pentylphenyl)propionic acid]
[3]; compound 0.1 mM
  α-SMA NRK-49F cells % inhibition: 46%

## CCCCCCc1cccc(CC(=O)O)c1 [Compound XI, Sodium Salt of 2-(3-Hexylphenyl)acetic acid]
[3]; Rattus norvegicus, NRK-49F, compound 0.1 mM
  inhibition at 100 µM: 80%

## CCCCC=Cc1cccc(CC(=O)[O-])c1.[Na+] [Compound XII, Sodium Salt of 2-(3-(Hex-1-enyl)phenyl)acetic acid]
[3]; compound 0.1 mM
  α-SMA NRK-49F cells % inhibition: 49%

## CCCC=Cc1ccc(F)c(CC(=O)[O-])c1.[Na+] [Compound XIII, Sodium Salt of 2-(2-Fluoro-5-(pent-1-enyl)phenyl)acetic acid]
[3]; compound 0.5 mM
  α-SMA NRK-49F cells % inhibition: 84%

## CCCCCc1cc(CC(=O)O)ccc1O [Compound XIV, Sodium Salt of 2-(4-Hydroxy-3-pentylphenyl)acetic acid]
[1]; Homo sapiens
  inhibition at 500 µM: 72%
[2]
  inhibition at 500 µM: 26%
[3]; [9]
  inhibition at 500 µM: 92%

## CCCCCc1cccc(CC(=O)[O-])c1O.[Na+] [Compound XIX, Sodium Salt of 2-(2-Hydroxy-3-pentylphenyl)acetic acid]
[1]
  Collagen HK-2 cells % inhibition: 100%
[3]; compound 0.25 mM
  α-SMA NRK-49F cells % inhibition: 100%

## CCCCCc1cc(CC(=O)O)ccc1F [Compound XV, Sodium Salt of 2-(4-Fluoro-3-pentylphenyl)acetic acid]
[1]; Homo sapiens
  inhibition at 500 µM: 100%
[3]; [9]
  inhibition at 500 µM: 100%

## CCCCCc1cccc(CC(=O)O)c1F [Compound XVI, Sodium Salt of 2-(2-Fluoro-3-pentylphenyl)acetic acid]
[1]; Homo sapiens
  inhibition at 500 µM: 100%
[3]; [10]
  inhibition at 250 µM: 100%

## CCCCCc1cc(CCC(=O)[O-])ccc1O.[Na+] [Compound XVII, Sodium Salt of 3-(4-Hydroxy-3-pentylphenyl)propanoic acid]
[1]
  Collagen HK-2 cells % inhibition: 0%
[3]; compound 0.5 mM
  α-SMA NRK-49F cells % inhibition: 66%

## CCCCCc1cccc(C(=O)C(=O)[O-])c1.[Na+] [Compound XVIII, Sodium Salt of 2-Oxo-2-(3-pentylphenyl)acetic acid]
[3]; compound 0.25 mM
  α-SMA NRK-49F cells % inhibition: 100%

## CCCCCc1cc(O)c(Cc2ccccc2)c(CC(=O)O)c1 [Compound XX, Sodium Salt of 2-(2-Benzyl-3-hydroxy-5-pentylphenyl)acetic acid]
[1]; Homo sapiens, HK-2, compound 0.125 mM
  inhibition at 125 µM: 73%
[3]; Rattus norvegicus, NRK-49F, compound 0.0625 mM
  inhibition at 62.5 µM: 95%

## Cc1ccc(=O)n(-c2ccccc2)c1 [Pirfenidone, pirfenidone, reference compound]
[6]; alone or combined, FIG. 8
  histological lesion score of lungs (HEP and Masson's trichrome): no reduction of fibrosis at the histological level
[6]; alone or combined, FIG. 11
  visual grading of pulmonary fibrosis (Ashcroft's score): weak activity
[6]; FIG. 10
  lesions and fibrosis in lungs (photomicrographs stained with HEP): no effect
[7]; FIG. 12
  TGF-β mRNA expression in lungs: decreased
[7]; FIG. 13
  CTGF mRNA expression in lungs: no effect
[7]; FIG. 14
  IL-23 mRNA expression in lungs: decreased
[7]; FIG. 15
  IL-6 mRNA expression in lungs: decreased
[7]; FIG. 18
  collagen 3 mRNA expression in lungs: no effect
[7]; reduction to the control level, FIG. 16
  collagen 1 mRNA expression in lungs: significant reduction
[7]; reduction to the control level, FIG. 17
  fibronectin (FN-1) mRNA expression in lungs: significant reduction
[8]
  Toxicity related to drug: Vertigo ++++
[8]; listed as pirfenidone
  Toxicity related to drug: severe vertigo
